Tests used:
Format in all cases: in vivo, human
[1] = test system: patients with PFIC; experiment: PEDFIC 2 open-label extension trial, interim analysis: safety (TEAEs)
Method: Study Design • This phase 3 study included a screening period (for newly enrolled patients [i.e., cohort 2] only) and a 72-week treatment period (FIG. 9) in which all patients received oral, once-daily odevixibat 120 μg/kg. • Patients returned to the clinic 4 and 12 weeks after the first dose of odevixibat and then approximately every 10 to 12 weeks thereafter. • Following the 72-week treatment period, patients either enrolled in an optional extension for continued treatment or returned for a follow-up visit 4 weeks after ending study drug. Outcomes, Assessments, and Statistical Analysis • The primary efficacy outcomes were to assess the effects of odevixibat on sBAs and pruritus, including mean changes and proportion of patients meeting response criteria. • sBA responders were defined as patients who achieved a normalization of sBAs or reduction of ≥70%. • Pruritus responders were defined as patients who achieved a ≥1-point drop on the pruritus assessment. • Secondary outcomes included characterizing the long-term safety and tolerability of odevixibat, as well as the effects of odevixibat on growth, biliary diversion and/or liver transplantation, and markers of cholestasis and liver disease. • For the P1O and PIP groups, there were 2 baselines (PEDFIC 1 baseline and PEDFIC 2 baseline); for those in cohort 2, baseline refers to the value prior to initiation of odevixibat in PEDFIC 2. • This interim analysis focuses on data collected after 24 weeks of treatment in PEDFIC 2. • T tests were used to calculate P values for primary outcomes in the P1O group only; other outcomes were summarized descriptively.

[2] = test system: children with PFIC; experiment: Pooled analysis of PEDFIC 1 and PEDFIC 2 (up to 48 weeks): safety
From the text: This example describes key outcomes with odevixibat in children with PFIC1 (familial intrahepatic cholestasis 1 [FIC1] deficiency) or PFIC2 ((bile salt export pump [BSEP] deficiency) based on pooled analysis of data from the phase 3 PEDFIC 1 (P1; NCT03566238) and PEDFIC 2 (P2; NCT03659916) studies. This pooled analysis covers up to 48 weeks of odevixibat treatment from P1 and through the planned P2 interim data cut. The following outcomes are described: change in serum bile acids (sBAs), change in pruritus score (measured using the PRUCISION scale; range: 0-4), evaluation of growth and sleep parameters, and safety monitoring. Mean changes in autotaxin (linked to cholestatic pruritus intensity) and plasma 7α-hydroxy-4-cholesten-3-one (p-C4; marker of bile acid synthesis) levels were also summarized.

[3] = test system: children with PFIC; experiment: PEDFIC 1: treatment responders in analysis of pretreatment serum bile acid parameters
Method: This analysis included children with PFIC aged 0.5-18 years with elevated sBAs and history of significant pruritus who were treated with odevixibat 40 μg/kg/day (n=23) or 120 μg/kg/day (n=19) in […] 1. Pretreatment sBA composition was analyzed using liquid chromatography-tandem mass spectrometry, quantifying serum concentrations of total BAs and primary (cholate, chenodeoxycholate) and secondary (deoxycholate, lithocholate) BAs. sBA concentrations are presented below including and excluding the contribution from ursodeoxycholate (UDCA). Pretreatment serum concentrations of 7α-hydroxy-4-cholesten-3-one (C4) were also quantified. Pretreatment parameters were analysed in treatment responders (Rs; i.e., patients with sBAs≤70 μmol/L or reduced ≥70% and/or a ≥1-point drop in observer-reported pruritus score from baseline to end of treatment) vs nonresponders (NRs).

In the case of `CCCCC1(CCCC)CN(c2ccccc2)c2cc(SC)c(OCC(=O)N[C@@H](C(=O)N[C@@H](CC)C(=O)O)c3ccc(O)cc3)cc2S(=O)(=O)N1` [Odevixibat, 1,1-dioxo-3,3-dibutyl-5-phenyl-7-methylthio-8-(N-{(R)-α-[N-((S)-1-carboxypropyl)carbamoyl]-4-hydroxybenzyl}carbamoylmethoxy)-2,3,4,5-tetrahydro-1,2,5-benzothiadiazepine], the “fat-soluble vitamin deficiencies refractory to clinically recommended vitamin supplementation” value ([1]; PEDFIC 2) is reported as “no new or worsening fat-soluble vitamin deficiencies”, the “Any TEAE, patients” value ([1]; PEDFIC 2, Cohort 2, n = 16) is reported as 8 (50.0) n (%) and the “Drug-related TEAE by preferred term: Blood bilirubin increased” value ([1]; PEDFIC 2, Cohort 2, n = 16) is reported as 3 (18.8) n (%). For the same compound, the “Drug-related TEAE by preferred term: Cough” value (“Drug-related TEAE … Cough” for short) ([1]; PEDFIC 2, Cohort 2, n = 16) was 0 n (%), the “Drug-related TEAE by preferred term: Diarrhea” value (“Drug-related TEAE … Diarrhea” below) ([1]; PEDFIC 2, Cohort 2, n = 16) was 0 n (%) and the “Drug-related TEAE by preferred term: INR increased” value (from here on “Drug-related TEAE … INR increased”) ([1]; PEDFIC 2, Cohort 2, n = 16) was 2 (12.5) n (%). For the same compound, the “Drug-related TEAE by preferred term: Pruritus” value (“Drug-related TEAE … Pruritus” below) ([1]; PEDFIC 2, Cohort 2, n = 16) was 0 n (%), the “Drug-related TEAE by preferred term: Pyrexia” value (from here on “Drug-related TEAE … Pyrexia”) ([1]; PEDFIC 2, Cohort 2, n = 16) was 2 (12.5) n (%) and the “Drug-related TEAE by preferred term: URTI” value (from here on “Drug-related TEAE … URTI”) ([1]; PEDFIC 2, Cohort 2, n = 16) was 0 n (%). For the same compound, the “Drug-related TEAEs, patients” value ([1]; PEDFIC 2, Cohort 2, n = 16) was 5 (31.3) n (%), the “Mild TEAE, patients” value ([1]; PEDFIC 2, Cohort 2, n = 16) was 2 (12.5) n (%) and the “Moderate TEAE, patients” value ([1]; PEDFIC 2, Cohort 2, n = 16) was 3 (18.8) n (%). The “Serious TEAEs, patients” value ([1]; PEDFIC 2, Cohort 2, n = 16) was 1 (6.3) n (%), the “Severe TEAE, patients” value ([1]; PEDFIC 2, Cohort 2, n = 16) was 3 (18.8) n (%) and the “TEAEs leading to discontinuation, patients” value ([1]; PEDFIC 2, Cohort 2, n = 16) was 2 (12.5) n (%). For the same compound, the “Any TEAE, patients” value ([1]; PEDFIC 2, P1O, n = 34) was 28 (82.4) n (%), the “Drug-related TEAE by preferred term: Blood bilirubin increased” value ([1]; PEDFIC 2, P1O, n = 34) was 4 (11.8) n (%) and the “Drug-related TEAE … Cough” value ([1]; PEDFIC 2, P1O, n = 34) was 8 (23.5) n (%). The “Drug-related TEAE … Diarrhea” value ([1]; PEDFIC 2, P1O, n = 34) was 6 (17.6) n (%), the “Drug-related TEAE … INR increased” value ([1]; PEDFIC 2, P1O, n = 34) was 2 (5.9) n (%) and the “Drug-related TEAE … Pruritus” value ([1]; PEDFIC 2, P1O, n = 34) was 4 (11.8) n (%). The “Drug-related TEAE … Pyrexia” value ([1]; PEDFIC 2, P1O, n = 34) was 7 (20.6) n (%), the “Drug-related TEAE … URTI” value ([1]; PEDFIC 2, P1O, n = 34) was 9 (26.5) n (%) and the “Drug-related TEAEs, patients” value ([1]; PEDFIC 2, P1O, n = 34) was 10 (29.4) n (%). The “Mild TEAE, patients” value ([1]; PEDFIC 2, P1O, n = 34) was 17 (50.0) n (%), the “Moderate TEAE, patients” value ([1]; PEDFIC 2, P1O, n = 34) was 10 (29.4) n (%) and the “Serious TEAEs, patients” value ([1]; PEDFIC 2, P1O, n = 34) was 0 n (%). For the same compound, the “Severe TEAE, patients” value ([1]; PEDFIC 2, P1O, n = 34) was 1 (2.9) n (%), the “TEAEs leading to discontinuation, patients” value ([1]; PEDFIC 2, P1O, n = 34) was 0 n (%) and the “Any TEAE, patients” value ([1]; PEDFIC 2, P1P, n = 19) was 14 (73.7) n (%). The “Drug-related TEAE by preferred term: Blood bilirubin increased” value ([1]; PEDFIC 2, P1P, n = 19) was 2 (10.5) n (%), the “Drug-related TEAE … Cough” value ([1]; PEDFIC 2, P1P, n = 19) was 2 (10.5) n (%) and the “Drug-related TEAE … Diarrhea” value ([1]; PEDFIC 2, P1P, n = 19) was 1 (5.3) n (%). For the same compound, the “Drug-related TEAE … INR increased” value ([1]; PEDFIC 2, P1P, n = 19) was 2 (10.5) n (%), the “Drug-related TEAE … Pruritus” value ([1]; PEDFIC 2, P1P, n = 19) was 2 (10.5) n (%) and the “Drug-related TEAE … Pyrexia” value ([1]; PEDFIC 2, P1P, n = 19) was 4 (21.1) n (%). The “Drug-related TEAE … URTI” value ([1]; PEDFIC 2, P1P, n = 19) was 5 (26.3) n (%), the “Drug-related TEAEs, patients” value ([1]; PEDFIC 2, P1P, n = 19) was 5 (26.3) n (%) and the “Mild TEAE, patients” value ([1]; PEDFIC 2, P1P, n = 19) was 6 (31.6) n (%). The “Moderate TEAE, patients” value ([1]; PEDFIC 2, P1P, n = 19) was 7 (36.8) n (%), the “Serious TEAEs, patients” value ([1]; PEDFIC 2, P1P, n = 19) was 3 (15.8) n (%) and the “Severe TEAE, patients” value ([1]; PEDFIC 2, P1P, n = 19) was 1 (5.3) n (%). For the same compound, the “TEAEs leading to discontinuation, patients” value ([1]; PEDFIC 2, P1P, n = 19) was 1 (5.3) n (%), the “mean serum chemistry, hematology, urinalysis, international normalized ratio values” ([1]; PEDFIC 2, laboratory assessments) was “No clinically significant changes or safety signals” and the “patients reporting mild/moderate TEAEs” value ([1]; PEDFIC 2, of 50 patients overall with any TEAE) was 45 patients. For the same compound, the “rate of discontinuations due to TEAEs” value ([1]; PEDFIC 2 overall) was < 30, the “patients overall with any TEAE” value ([1]; PEDFIC 2 overall (69 patients)) was 50 patients and the incidence of diarrhea ([1]; PEDFIC 2 overall, 7 patients, through week 24) was 10.1%. For the same compound, the “deaths or drug-related serious TEAEs” value ([1]; PEDFIC 2 through week 24) was “no deaths or drug-related serious TEAEs occurred”, the tolerability ([1]; PEDFIC 2 through week 24, 120 μg/kg/day) was “generally well tolerated” and the “patients with drug-related TEAEs” value ([2]; pooled P1+P2, 32 of 77 patients) was 42%. For the same compound, the patients who experienced any TEAE ([2]; pooled P1+P2, 61 of 77 patients) was 79%, the “drug-related serious TEAEs” value ([2]; pooled P1+P2, 77 patients) was “no drug-related serious TEAEs were reported” and the “patients reporting severe TEAEs” value ([2]; pooled P1+P2, 77 patients) was “Eight”. The “patients with TEAEs leading to treatment discontinuation” value ([2]; pooled P1+P2, 77 patients) was “Four”, the “incidence of TEAEs” value ([2]; pooled P1+P2, BSEP subtype 1) was 77% and the “incidence of TEAEs” value ([2]; pooled P1+P2, BSEP subtype 2) was 86%. For the same compound, the “incidence of TEAEs” value ([2]; pooled P1+P2, patients with PFIC1, placebo in P1 85%) was 80%, the “incidence of TEAEs” value ([2]; pooled P1+P2, patients with PFIC2) was 80% and the tolerability ([2]; pooled P1+P2, treatment for up to 48 weeks) was “well tolerated”. The “proportion of treatment responders (sBAs ≤70 μmol/L or reduced ≥70% and/or ≥1-point drop in pruritus score)” value ([3]; PEDFIC 1, 40 μg/kg/day) was 16/23 and the “proportion of treatment responders (sBAs ≤70 μmol/L or reduced ≥70% and/or ≥1-point drop in pruritus score)” value ([3]; PEDFIC 1, dose groups combined, 24/42) was 57%.

Reference: patent publication US12447156B2, “Treating progressive familial intrahepatic cholestasis (PFIC) with IBAT inhibitors” (ALBIREO AB, priority 2020, dated 2025)
